US20040037843A1, “Inducing cellular immune responses to prostate cancer antigens using peptide and nucleic acid compositions” (priority 2003, published 2004)

Legend:
Assay in all cases: HLA class I binding assay, purified HLA, inhibition of 125I-labelled probe peptide
HLA-A*0201 = HLA-A*0201 (Homo sapiens, UniProt P04439, D140Y/D185E/D98H/E176V/E277Q/G131W/G231S/I119V/I121R/I166T/I218V/L300P/L318F/N151K/N90K/P208A/P217A/Q86G/Q94H/R138H/R169H/T345S); details: A*[…], A2 supermotif cross-reactive binding data
HLA-A*0202 = HLA-A*0202 (Homo sapiens, UniProt P04439, D140Y/D185E/D98H/E176V/E277Q/G131W/G231S/I119L/I121R/I166T/I218V/L180W/L300P/L318F/N151K/N90K/P208A/P217A/Q67R/Q86G/Q94H/R138H/R169H/T345S); details: A2 supermotif cross-reactive binding data
HLA-A*0203 = HLA-A*0203 (Homo sapiens, UniProt P04439, A173T/D140Y/D185E/D98H/E277Q/G131W/G231S/I119V/I121R/I166T/I218V/L180W/L300P/L318F/N151K/N90K/P208A/P217A/Q86G/Q94H/R138H/R169H/T345S); details: A*[…], A2 supermotif cross-reactive binding data
HLA-A*0206 = HLA-A*0206 (Homo sapiens, UniProt P04439, D140Y/D185E/D98H/E176V/E277Q/F33Y/G131W/G231S/I119V/I121R/I166T/I218V/L300P/L318F/N151K/N90K/P208A/P217A/Q86G/Q94H/R138H/R169H/T345S); details: A*[…], A2 supermotif cross-reactive binding data
HLA-A*6802 = HLA-A*6802 (Homo sapiens, UniProt P04439, A269V/D140Y/D185E/E176V/E277Q/E87N/F33Y/G231S/I121R/I166T/I218V/L180W/L300P/L318F/N151K/P208A/P217A/Q86R/R138H/R169H/S129P/T345S/V36M); details: A2 supermotif cross-reactive binding data; read-out: A*6802 nM

Structure (SMILES)	IC50 (HLA-A*0201) [nM]	IC50 (HLA-A*0202) [nM]	IC50 (HLA-A*0203) [nM]	IC50 (HLA-A*0206) [nM]	IC50 (HLA-A*6802) [nM]
CC(C)C[C@H](NC(=O)[C@H](CO)NC(=O)[C@H](CC(C)C)NC(=O)[C@H](CO)NC(=O)[C@H](C)NC(=O)[C@H](C)NC(=O)[C@H](CCCNC(=N)N)NC(=O)[C@H](C)NC(=O)[C@H](CC(C)C)NC(=O)[C@@H](N)CC(C)C)C(=O)O [Peptide 20.0203]	500	5.2	63	9250	
CC[C@H](C)[C@H](NC(=O)[C@H](CO)NC(=O)[C@@H](NC(=O)CN)C(C)C)C(=O)N[C@@H](Cc1c[nH]c2ccccc12)C(=O)N[C@@H](CC(N)=O)C(=O)N1CCC[C@H]1C(=O)N[C@H](C(=O)N[C@H](C(=O)O)C(C)C)[C@@H](C)CC [Peptide 60.0207]	455	269	909		> 10000
CC(C)C[C@H](NC(=O)[C@@H](NC(=O)[C@H](CC(C)C)NC(=O)[C@@H](N)Cc1ccccc1)[C@@H](C)O)C(=O)N[C@@H](CO)C(=O)N[C@H](C(=O)N[C@H](C(=O)N[C@@H](Cc1c[nH]c2ccccc12)C(=O)N[C@H](C(=O)O)C(C)C)[C@@H](C)O)C(C)C [Peptide 60.0216]	53	8.4	8.3		> 10000
CC[C@H](C)[C@H](NC(=O)[C@H](Cc1c[nH]c2ccccc12)NC(=O)[C@@H](NC(=O)[C@@H](NC(=O)[C@H](CO)NC(=O)[C@H](CC(C)C)NC(=O)[C@@H](N)[C@@H](C)O)C(C)C)[C@@H](C)O)C(=O)NCC(=O)N[C@H](C(=O)O)C(C)C [Peptide 60.0217]	26	4.9	40	712	229
CSCC[C@H](NC(=O)[C@H](Cc1ccccc1)NC(=O)[C@H](CCCCN)NC(=O)[C@@H](NC(=O)[C@@H](NC(=O)[C@@H](N)CCCCN)C(C)C)[C@@H](C)O)C(=O)N[C@@H](CC(C)C)C(=O)N[C@@H](CS)C(=O)N[C@H](C(=O)O)C(C)C [Peptide 60.0220]	69	518	53	128	> 10000
CC(C)C[C@H](NC(=O)[C@H](CO)NC(=O)[C@H](C)NC(=O)[C@H](C)NC(=O)[C@H](CCCNC(=N)N)NC(=O)[C@H](C)NC(=O)[C@H](CC(C)C)NC(=O)[C@@H](N)CC(C)C)C(=O)N[C@@H](CO)C(=O)N[C@H](C(=O)O)C(C)C [Peptide 63.0031]	109	10	21	378	
CC(C)C[C@H](NC(=O)[C@H](CC(C)C)NC(=O)[C@@H](N)CO)C(=O)N[C@@H](C)C(=O)N[C@@H](CCCCN)C(=O)N[C@@H](CCC(=O)O)C(=O)N[C@@H](CC(C)C)C(=O)N[C@@H](CCCCN)C(=O)N[C@@H](Cc1ccccc1)C(=O)N[C@H](C(=O)O)C(C)C [Peptide 63.0033]	64	5.7	3.8		6670
CC[C@H](C)[C@H](NC(=O)[C@H](CO)NC(=O)[C@@H](NC(=O)CN)C(C)C)C(=O)N[C@@H](Cc1c[nH]c2ccccc12)C(=O)N[C@@H](CC(N)=O)C(=O)N1CCC[C@H]1C(=O)N[C@H](C(=O)N[C@@H](CC(C)C)C(=O)N[C@H](C(=O)O)C(C)C)[C@@H](C)CC [Peptide 63.0041]	250	94		451	2290
CC[C@H](C)[C@H](NC(=O)[C@@H]1CCCN1C(=O)[C@H](CCC(N)=O)NC(=O)[C@H](Cc1c[nH]c2ccccc12)NC(=O)[C@H](CC(C)C)NC(=O)[C@H](CC(C)C)NC(=O)[C@H](CC(C)C)NC(=O)[C@@H]1CCCN1)C(=O)N1CCC[C@H]1C(=O)N[C@H](C(=O)O)C(C)C [Peptide 63.0042]	238	47	19	336	
CC(C)C[C@H](NC(=O)[C@H](CCC(=O)O)NC(=O)[C@H](CCCNC(=N)N)NC(=O)[C@H](CC(C)C)NC(=O)[C@@H](N)CCCCN)C(=O)N[C@@H](CO)C(=O)N[C@@H](CCC(=O)O)C(=O)N[C@@H](CC(C)C)C(=O)N[C@@H](CO)C(=O)N[C@H](C(=O)O)C(C)C [Peptide 63.0048]	263	9.1	7.1		1820
